Test results: US20260250318A1, “COMPOSITIONS AND METHODS FOR CROSSING THE BLOOD BRAIN BARRIER” (VOYAGER THERAPEUTICS, INC., priority 2022, published 2026)

Experiments:
brain = assay: Matured TTM-001 and TTM-002 variants, NGS enrichment in mouse brain; type: in vivo, mice; conditions: relative to AAV9 control
[1] = test system: brains, heart, liver, muscle, and DRG of the NHPs; assay: Maturation of TTM-001 and TTM-002 capsids, NGS enrichment in NHP tissues; type: in vivo; conditions: relative to AAV9 control
Outline: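 Variants carry mutations within and flanking the loop IV peptide insert: positions 450–466 were triplet-randomized, while positions 449–466 received low-frequency point mutations. The combined pool went into two NHPs, and each peptide was scored by NGS enrichment ratio against AAV9.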

[2] = NGS fold-enrichment of matured AAV capsid variants, NHP brain, RNA
[3] = NGS fold-enrichment, brain of mice
[4] = NGS fold-enrichment, DRG of NHPs
[5] = NGS fold-enrichment, RNA, brain of NHPs
[6] = NGS fold-enrichment, heart of NHPs
[7] = NGS fold-enrichment, liver DNA of NHPs
[8] = NGS fold-enrichment, liver RNA of NHPs
[9] = NGS fold-enrichment, muscle of NHPs
[10] = NGS fold-enrichment, mouse brain
[11] = NGS fold-enrichment of RNA, NHP brain
[12] = NGS fold-enrichment, NHP liver DNA
[13] = NGS fold-enrichment, NHP liver RNA
[14] = NGS fold-enrichment, NHP muscle

Sequence | Fold Enrichment relative to AAV9, Brain (Mouse) (brain; [10]) [fold] | Fold Enrichment relative to AAV9, Brain (NHP) [1, 11] [fold] | Fold Enrichment relative to AAV9, DRG (NHP) ([1]; NGS fold-enrichment, NHP DRG) [fold] | Fold Enrichment relative to AAV9, Heart (NHP) ([1]; NGS fold-enrichment, NHP heart) [fold] | Fold Enrichment relative to AAV9, Liver DNA (NHP) [1, 12] [fold] | Fold Enrichment relative to AAV9, Liver RNA (NHP) [1, 13] [fold] | Fold Enrichment relative to AAV9, Muscle (NHP) [1, 14] [fold] | further results
KTVNGGGSPHSKAQNLQT |  |  |  |  |  |  |  | Fold Enrichment relative to AAV9, Brain (Mouse) (brain; mouse brain): 83.215 fold; Fold Enrichment relative to AAV9, Brain (NHP) [1, 2]: 52.788 fold; Fold Enrichment relative to AAV9, DRG (NHP) ([1]; NHP DRG): 0.000 fold; Fold Enrichment relative to AAV9, Heart (NHP) ([1]; NHP heart): 0.031 fold; Fold Enrichment relative to AAV9, Liver DNA (NHP) ([1]; NHP liver, DNA): 0.165 fold; Fold Enrichment relative to AAV9, Liver RNA (NHP) ([1]; NHP liver, RNA): 0.000 fold; Fold Enrichment relative to AAV9, Muscle (NHP) ([1]; NHP muscle): 0.000 fold
KTVNGGGSPHSKAQNQQS |  |  |  |  |  |  |  | Fold Enrichment relative to AAV9, Brain (Mouse) (brain; [3]): 61.847 fold; Fold Enrichment relative to AAV9, DRG (NHP) [1, 4]: 0.062 fold; Fold Enrichment relative to AAV9, Brain (NHP) [1, 5]: 59.871 fold; Fold Enrichment relative to AAV9, Heart (NHP) [1, 6]: 0.020 fold; Fold Enrichment relative to AAV9, Liver DNA (NHP) [1, 7]: 0.185 fold; Fold Enrichment relative to AAV9, Liver RNA (NHP) [1, 8]: 0.080 fold; Fold Enrichment relative to AAV9, Muscle (NHP) [1, 9]: 0.000 fold
KTVNGGGSPHSKAQSQQT |  |  |  |  |  |  |  | Fold Enrichment relative to AAV9, Brain (Mouse) (brain; [3]): 160.711 fold; Fold Enrichment relative to AAV9, DRG (NHP) [1, 4]: 0.000 fold; Fold Enrichment relative to AAV9, Brain (NHP) [1, 5]: 67.634 fold; Fold Enrichment relative to AAV9, Heart (NHP) [1, 6]: 0.055 fold; Fold Enrichment relative to AAV9, Liver DNA (NHP) [1, 7]: 0.210 fold; Fold Enrichment relative to AAV9, Liver RNA (NHP) [1, 8]: 0.000 fold; Fold Enrichment relative to AAV9, Muscle (NHP) [1, 9]: 0.000 fold
KTVNGGGSPHSKSQNQQT |  |  |  |  |  |  |  | Fold Enrichment relative to AAV9, Brain (Mouse) (brain; mouse brain): 170.548 fold; Fold Enrichment relative to AAV9, Brain (NHP) [1, 2]: 56.114 fold; Fold Enrichment relative to AAV9, DRG (NHP) ([1]; NHP DRG): 0.116 fold; Fold Enrichment relative to AAV9, Heart (NHP) ([1]; NHP heart): 0.000 fold; Fold Enrichment relative to AAV9, Liver DNA (NHP) ([1]; NHP liver, DNA): 0.040 fold; Fold Enrichment relative to AAV9, Liver RNA (NHP) ([1]; NHP liver, RNA): 0.000 fold; Fold Enrichment relative to AAV9, Muscle (NHP) ([1]; NHP muscle): 0.000 fold
KTVNGHDSPHKIGHNQQT | 10.167 | 120.985 | 0.000 | 0.029 | 0.009 | 0.000 | 0.000 | 
KTVNGHDSPHKSGHTQQT | 6.160 | 82.246 | 0.000 | 0.378 | 0.123 | 0.000 | 1.142 | 
KTVNGHDSPHKSGQNHLT | 16.096 | 81.516 | 0.000 | 0.100 | 0.028 | 0.000 | 0.017 | 
KTVNGHDSPHKSGQNLHT | 11.363 | 88.080 | 0.000 | 0.080 | 0.039 | 0.000 | 0.000 | 
KTVNGHDSPHKSGQNLLT | 18.894 | 83.969 | 0.114 | 0.040 | 0.035 | 0.000 | 0.023 | 
KTVNGHDSPHKSGQTRQT | 7.174 | 133.276 | 0.251 | 0.080 | 0.129 | 0.034 | 0.093 | 
KTVNGHDSPHKSGRNQET | 11.958 | 102.695 | 0.000 | 0.286 | 0.027 | 0.000 | 0.000 | 
KTVNGHDSPHKSLQNQQT | 16.726 | 112.925 | 0.000 | 0.301 | 0.322 | 0.000 | 0.059 | 
KTVNGHDSPHKSRQSQQT | 8.136 | 76.458 | 0.000 | 0.063 | 0.021 | 0.000 | 0.000 | 
KTVNGNGSPHSKAQNHQT |  |  |  |  |  |  |  | Fold Enrichment relative to AAV9, Brain (Mouse) (brain; [3]): 52.482 fold; Fold Enrichment relative to AAV9, DRG (NHP) [1, 4]: 0.000 fold; Fold Enrichment relative to AAV9, Brain (NHP) [1, 5]: 68.889 fold; Fold Enrichment relative to AAV9, Heart (NHP) [1, 6]: 0.000 fold; Fold Enrichment relative to AAV9, Liver DNA (NHP) [1, 7]: 0.030 fold; Fold Enrichment relative to AAV9, Liver RNA (NHP) [1, 8]: 0.000 fold; Fold Enrichment relative to AAV9, Muscle (NHP) [1, 9]: 0.000 fold
KTVNGNGSPHSKAQNKQT | 69.455 | 81.481 | 0.000 | 0.000 | 0.122 | 0.000 | 0.000 | Fold Enrichment relative to AAV9, Brain (Mouse) (brain; [3]): 69.455 fold; Fold Enrichment relative to AAV9, DRG (NHP) [1, 4]: 0.000 fold; Fold Enrichment relative to AAV9, Brain (NHP) [1, 5]: 81.481 fold; Fold Enrichment relative to AAV9, Heart (NHP) [1, 6]: 0.000 fold; Fold Enrichment relative to AAV9, Liver DNA (NHP) [1, 7]: 0.122 fold; Fold Enrichment relative to AAV9, Liver RNA (NHP) [1, 8]: 0.000 fold; Fold Enrichment relative to AAV9, Muscle (NHP) [1, 9]: 0.000 fold
KTVNGNGSPHSKAQNQHT | 54.086 | 78.849 | 0.000 | 0.000 | 0.045 | 0.000 | 0.000 | Fold Enrichment relative to AAV9, Brain (Mouse) (brain; [3]): 54.086 fold; Fold Enrichment relative to AAV9, DRG (NHP) [1, 4]: 0.000 fold; Fold Enrichment relative to AAV9, Brain (NHP) [1, 5]: 78.849 fold; Fold Enrichment relative to AAV9, Heart (NHP) [1, 6]: 0.000 fold; Fold Enrichment relative to AAV9, Liver DNA (NHP) [1, 7]: 0.045 fold; Fold Enrichment relative to AAV9, Liver RNA (NHP) [1, 8]: 0.000 fold; Fold Enrichment relative to AAV9, Muscle (NHP) [1, 9]: 0.000 fold
KTVNGNGSPHSKSQNQQT |  |  |  |  |  |  |  | Fold Enrichment relative to AAV9, Brain (Mouse) (brain; mouse brain): 95.384 fold; Fold Enrichment relative to AAV9, Brain (NHP) [1, 2]: 54.586 fold; Fold Enrichment relative to AAV9, DRG (NHP) ([1]; NHP DRG): 0.000 fold; Fold Enrichment relative to AAV9, Heart (NHP) ([1]; NHP heart): 0.000 fold; Fold Enrichment relative to AAV9, Liver DNA (NHP) ([1]; NHP liver, DNA): 0.168 fold; Fold Enrichment relative to AAV9, Liver RNA (NHP) ([1]; NHP liver, RNA): 0.256 fold; Fold Enrichment relative to AAV9, Muscle (NHP) ([1]; NHP muscle): 0.000 fold
